Common to all, as to type: cell-based
In assay [1] the test system is AR-expressing (AR-positive) prostate cancer cell lines. The assay can be described thus: MTT cell viability assay, AR-positive cells. As to conditions: growth inhibition grade, 6 days. The procedure:
(§1) FIGS. 3A-Q. Growth inhibitory effects of selected compounds. The indicated cells were exposed to the indicated compounds for 6 days; cell viability was measured by MTT assay, and specific reporters were assayed using literature conditions. Results were normalized to that of vehicle control. Experiments were performed in quadruplicate; results are means±s.d.
(§2) JN053 and JN138-JN156 were synthesized and tested in biochemical and cell biologic assays that have been described elsewhere. The JN compounds were first studied in cell viability assays (MTT assay) to determine the efficacy and specificity of the JN compounds for inhibition of prostate cancer cell lines.
(§3) The growth inhibitory effect of the JN compounds was assessed through the MTT assay, which assesses the total number of viable cells in vitro. These experiments were performed in AR-expressing (AR-positive) prostate cancer cell lines to assess on target effects and AR-null (AR-negative) prostate cancer cell lines to assess off target effects (i.e. specificity).
AR-expressing (AR-pos): • LNCaP: full length AR • LNCaP AR: overexpression of full length AR • 22Rv1: full length AR and ARV7 • VCaP: full length AR and ARV7 • CWR22: full length AR and ARV7
For orientation: Formazan colour is commonly taken as a measure of viable cells.

Another assay concerns the target T1, androgen receptor (AR) (Homo sapiens, UniProt P10275).
T1 construct: either endogenously or exogenously express the full-length AR and ARV7
The assay can be described thus: MMTV-luciferase reporter assay (AR-dependent). The conditions noted are these: inhibition grade. The procedure:
The biochemical assays include reporter assays to determine the activity and specificity of these JN compounds to inhibit the transcriptional activity of the androgen receptor (AR). […] The reporter assays were performed in replicates and across a wide range of concentrations (generally […]).
The reporter systems utilized include: • MMTV-luciferase: AR-dependent • ARE-luciferase: AR-dependent • GRE-luciferase: glucocorticoid receptor (GR)-dependent • CRE-luciferase: CREB-dependent • AP1-luciferase: AP1 (jun and fos family)-dependent: • AR-TAD-luciferase: dependent on AR transactivation domain • CREB-TAD-luciferase: dependent on CREB transactivation domain • JUN-TAD-luciferase: dependent on c-Jun transactivation domain
(A reporter such as luciferase makes a cellular process visible.)

In assay [2] the test system is AR-null (AR-negative) prostate cancer cell lines. The assay can be described thus: MTT cell viability assay, AR-negative cells. The conditions noted are these: growth inhibition grade, 6 days. The procedure:
as §1, §2, §3

The structures appear in SMILES notation.

T1 sequence (P10275 whole entry): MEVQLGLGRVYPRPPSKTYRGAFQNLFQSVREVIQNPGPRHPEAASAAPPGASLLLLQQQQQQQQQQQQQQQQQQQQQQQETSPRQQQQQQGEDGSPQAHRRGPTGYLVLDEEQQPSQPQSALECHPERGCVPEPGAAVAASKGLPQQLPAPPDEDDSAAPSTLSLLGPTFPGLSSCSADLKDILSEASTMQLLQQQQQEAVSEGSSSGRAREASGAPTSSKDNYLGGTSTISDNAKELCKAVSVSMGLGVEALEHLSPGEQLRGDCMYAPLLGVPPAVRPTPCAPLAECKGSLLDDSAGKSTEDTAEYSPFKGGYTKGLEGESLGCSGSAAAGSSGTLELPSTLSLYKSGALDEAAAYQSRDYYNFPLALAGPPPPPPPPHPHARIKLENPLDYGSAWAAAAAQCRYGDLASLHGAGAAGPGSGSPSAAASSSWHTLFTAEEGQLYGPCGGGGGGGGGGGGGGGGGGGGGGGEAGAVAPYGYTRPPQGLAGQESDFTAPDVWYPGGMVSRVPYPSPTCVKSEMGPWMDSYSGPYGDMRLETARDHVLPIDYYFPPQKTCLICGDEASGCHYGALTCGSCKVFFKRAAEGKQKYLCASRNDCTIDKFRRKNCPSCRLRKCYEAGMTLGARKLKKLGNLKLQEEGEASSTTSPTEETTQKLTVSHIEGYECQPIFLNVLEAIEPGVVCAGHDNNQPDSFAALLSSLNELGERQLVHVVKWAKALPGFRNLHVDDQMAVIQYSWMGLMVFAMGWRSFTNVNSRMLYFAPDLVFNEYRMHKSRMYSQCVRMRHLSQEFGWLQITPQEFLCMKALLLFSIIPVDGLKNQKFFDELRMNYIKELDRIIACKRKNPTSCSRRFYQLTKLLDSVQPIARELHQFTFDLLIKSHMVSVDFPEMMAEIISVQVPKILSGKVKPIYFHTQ

Take `C=C1CC(c2ccc(OC)cc2)=C(c2ccccc2)C1=O` [JN053]: the “MTT AR-Pos” value in assay [1] was “LOW”. Moreover, the MMTV result at androgen receptor (AR) is listed as “MED”. Also, in assay [2], the “MTT AR Neg” value is recorded as “LOW”.
Take `C=CC(=O)NC(=O)/C(=C/c1ccc(Cl)cc1)c1ccc(F)cc1` [JN139]: the “MTT AR-Pos” value in assay [1] is “LOW”. Further, the “MTT AR Neg” value in assay [2] is listed as “LOW”.
In the case of `CCC1=C(C)CN(C(=O)/C(=C/c2ccc(Cl)cc2)c2ccccc2)C1=O` [JN140, (E)-1-(3-(4-Chlorophenyl)-2-phenylacryloyl)-3-ethyl-4-methyl-1,5-dihydro-2H-pyrrol-2-one], the “MTT AR-Pos” value in assay [1] is on record as “HIGH”. The “MTT AR Neg” value in assay [2] was “HIGH”.
With `O=C1CCCN1C(=O)/C(=C/c1ccc(Cl)cc1)c1ccccc1` [JN141], the “MTT AR-Pos” value in assay [1] was “LOW”. Moreover, the “MTT AR Neg” value in assay [2] is recorded as “LOW”.
Regarding `O=C(C1=CCN(Cc2ccccc2)CC1)/C(=C/c1ccc(Cl)cc1)c1ccccc1` [JN142, (E)-1-(1-Benzyl-1,2,3,6-tetrahydropyridin-4-yl)-3-(4-chlorophenyl)-2-phenylprop-2-en-1-one], the “MTT AR-Pos” value in assay [1] is “LOW”. In addition, the “MTT AR Neg” value in assay [2] is reported as “LOW”.
As to `COC1=CC(=O)N(C(=O)/C(=C/c2ccc(Cl)cc2)c2ccc(F)cc2F)C1` [JN143], the “MTT AR-Pos” value in assay [1] was “LOW”. For the same molecule, in assay [2], the “MTT AR Neg” value is recorded as “LOW”.
Consider `C#CCNC(=O)/C(=C/c1ccc(Cl)cc1)c1ccc(F)cc1F` [JN144, (E)-3-(4-Chlorophenyl)-2-(2,4-difluorophenyl)-N-(prop-2-yn-1-yl)acrylamide], for which, in assay [1], the “MTT AR-Pos” value is on record as “LOW”. Moreover, the “MTT AR Neg” value in assay [2] is reported as “LOW”.
In the case of `NS(=O)(=O)NC(=O)/C(=C/c1ccc(Cl)cc1)c1ccc(F)cc1F` [JN145, (E)-3-(4-Chlorophenyl)-2-(2,4-difluorophenyl)-N-sulfamoylacrylamide], the “MTT AR-Pos” value in assay [1] was “LOW”. Further, the “MTT AR Neg” value in assay [2] is on record as “LOW”.
For the molecule `N#CC1(NC(=O)/C(=C/c2ccc(Cl)cc2)c2ccc(F)cc2F)CC1` [JN146], the “MTT AR-Pos” value in assay [1] is on record as “LOW”. Further, the “MTT AR Neg” value in assay [2] is reported as “LOW”.
As for `O=C(NC(=O)C1CC1)/C(=C/c1ccc(Cl)cc1)c1ccc(F)cc1F` [JN147, (E)-N-(3-(4-Chlorophenyl)-2-(2,4-difluorophenyl)acryloyl)cyclopropanecarboxamide], the “MTT AR-Pos” value in assay [1] was “LOW”. Also, the “MTT AR Neg” value in assay [2] was “LOW”.
In the case of `Cc1cnc(/C(=C/c2ccc(Cl)cc2)c2ccc(F)cc2F)o1` [JN148, (E)-2-(2-(4-Chlorophenyl)-1-(2,4-difluorophenyl)vinyl)-5-methyloxazole], the “MTT AR-Pos” value in assay [1] is “LOW”. In addition, in assay [2], the “MTT AR Neg” value is reported as “LOW”.
Regarding `C=C1CN=C(/C(=C/c2ccc(Cl)cc2)c2ccc(F)cc2F)O1` [JN149, (E)-2-(2-(4-Chlorophenyl)-1-(2,4-difluorophenyl)vinyl)-5-methylene-4,5-dihydrooxazole], the “MTT AR-Pos” value in assay [1] is given as “LOW”. Also, in assay [2], the “MTT AR Neg” value is recorded as “LOW”.
`C=C(Cc1ccccc1)C(=O)NC(=O)/C(=C/c1ccc(Cl)cc1)c1ccc(F)cc1F` [JN150]: in assay [1], the “MTT AR-Pos” value is on record as “HIGH”. For the same molecule, the “MTT AR Neg” value in assay [2] is recorded as “HIGH”.
In the case of `C=C(C)C(=O)OCCOC(=O)/C(=C/c1ccc(Cl)cc1)c1ccc(F)cc1F` [JN151], the “MTT AR-Pos” value in assay [1] was “LOW”. For the same molecule, the “MTT AR Neg” value in assay [2] is given as “LOW”.
Take `C=C(C)C(=O)NC(=O)/C(=C/c1ccc(C(F)(F)F)nc1)c1ccccc1` [JN153]: in assay [1], the “MTT AR-Pos” value is on record as “HIGH”. Moreover, the “MTT AR Neg” value in assay [2] is recorded as “HIGH”.
Consider `O=C(/C=C/C(F)(F)F)NC(=O)/C(=C/c1ccc(Cl)cc1)c1ccc(F)cc1F` [JN154], for which, in assay [1], the “MTT AR-Pos” value was “HIGH”. For the same molecule, the “MTT AR Neg” value in assay [2] was “LOW”.
With `O=C(/C=C/c1ccccc1)NC(=O)/C(=C/c1ccc(Cl)cc1)c1ccc(F)cc1F` [JN155], the “MTT AR-Pos” value in assay [1] is given as “LOW”. Moreover, the “MTT AR Neg” value in assay [2] is “LOW”.
In the case of `C=C(C)C(=O)NCCCNC(=O)/C(=C/c1ccc(Cl)cc1)c1ccc(F)cc1F` [JN156, (E)-3-(4-Chlorophenyl)-2-(2,4-difluorophenyl)-N-(3-methacrylamidopropyl)acrylamide], the “MTT AR-Pos” value in assay [1] is “LOW”. For the same molecule, the “MTT AR Neg” value in assay [2] was “LOW”.
